Source: ChEMBL document CHEMBL3885881, “DrugMatrix”

Organism: Rattus norvegicus
Assay: DrugMatrix - Regimen: Daily Repeat
Assay type: toxicity, organism-based, Sprague-Dawley
Parameters: regimen Daily Repeat, gender Male, age 6-8 weeks
Settings: in vivo, po, route oral GAVAGE, […]; for ABSOLUTE BASOPHIL / ABSOLUTE EOSINOPHIL / ABSOLUTE LYMPHOCYTE / ABSOLUTE MONOCYTE / ABSOLUTE SEGMENTED NEUTROPHIL / BASOPHIL / EOSINOPHIL / ERYTHROCYTE COUNT / HEMATOCRIT / HEMOGLOBIN / LEUKOCYTE COUNT / LYMPHOCYTE / MEAN CORPUSCULAR HEMOGLOBIN / MEAN CORPUSCULAR HEMOGLOBIN CONCENTRATION / MEAN CORPUSCULAR VOLUME / MONOCYTE / NEUTROPHIL / NUCLEATED RED BLOOD CELLS / PLATELET COUNT: tissue Blood; for ALANINE AMINOTRANSFERASE / ALBUMIN / ALKALINE PHOSPHATASE / ASPARTATE AMINOTRANSFERASE / BLOOD UREA NITROGEN / CARBON DIOXIDE / CHLORIDE / CHOLESTEROL / CREATINE PHOSPHOKINASE / CREATININE / GLUCOSE / LACTATE DEHYDROGENASE / LIPASE / PHOSPHORUS / POTASSIUM / SODIUM / TOTAL BILIRUBIN / TOTAL PROTEIN / URIC ACID: tissue Plasma
[1] = 10 mg/kg, 72 h, dose level Low, time 3 day
[2] = 10 mg/kg, 120 h, dose level Low, time 5 day
[3] = 25 mg/kg, 72 h, dose level High, time 3 day
[4] = 25 mg/kg, 120 h, dose level High, time 5 day

Structure (SMILES): Sc1ncnc2nc[nH]c12 [MERCAPTOPURINE ANHYDROUS]
- ABSOLUTE BASOPHIL [1]: 0 CELLS/uL
- ABSOLUTE EOSINOPHIL [1]: 96.67 CELLS/uL
- ABSOLUTE LYMPHOCYTE [1]: 10655 CELLS/uL
- ABSOLUTE MONOCYTE [1]: 48.33 CELLS/uL
- ABSOLUTE SEGMENTED NEUTROPHIL [1]: 1066.67 CELLS/uL
- BASOPHIL [1]: 0%
- EOSINOPHIL [1]: 0.67%
- ERYTHROCYTE COUNT [1]: 5.09 x10E6/uL
- HEMATOCRIT [1]: 31.73%
- HEMOGLOBIN [1]: 12.87 G/DL
- LEUKOCYTE COUNT [1]: 11.87 x10E3/uL
- LYMPHOCYTE [1]: 90.33%
- MEAN CORPUSCULAR HEMOGLOBIN [1]: 25.3 pg
- MEAN CORPUSCULAR HEMOGLOBIN CONCENTRATION [1]: 40.6 G/DL
- MEAN CORPUSCULAR VOLUME [1]: 62.4 fL
- MONOCYTE [1]: 0.33%
- NEUTROPHIL [1]: 8.67%
- NUCLEATED RED BLOOD CELLS [1]: 0 /100WBC
- PLATELET COUNT [1]: 1148.67 x10E3/uL
- ALANINE AMINOTRANSFERASE [1]: 66.33 u/L
- ALBUMIN [1]: 3.9 G/DL
- ALKALINE PHOSPHATASE [1]: 364.67 u/L
- ASPARTATE AMINOTRANSFERASE [1]: 83 u/L
- BLOOD UREA NITROGEN [1]: 13 mg/dL
- CARBON DIOXIDE [1]: 30.33 mmol/L
- CHLORIDE [1]: 99 MEQ/L
- CHOLESTEROL [1]: 73.67 mg/dL
- CREATINE PHOSPHOKINASE [1]: 175.33 u/L
- CREATININE [1]: 0.15 mg/dL
- GLUCOSE [1]: 164.33 mg/dL
- LACTATE DEHYDROGENASE [1]: 112.33 u/L
- LIPASE [1]: 11.33 u/L
- PHOSPHORUS [1]: 11.03 mg/dL
- POTASSIUM [1]: 6.32 MEQ/L
- SODIUM [1]: 142.6 MEQ/L
- TOTAL BILIRUBIN [1]: 0.2 mg/dL
- TOTAL PROTEIN [1]: 5.6 G/DL
- URIC ACID [1]: 1.4 mg/dL
- ABSOLUTE BASOPHIL [2]: 0 CELLS/uL
- ABSOLUTE EOSINOPHIL [2]: 128 CELLS/uL
- ABSOLUTE LYMPHOCYTE [2]: 12203 CELLS/uL
- ABSOLUTE MONOCYTE [2]: 203 CELLS/uL
- ABSOLUTE SEGMENTED NEUTROPHIL [2]: 1366 CELLS/uL
- BASOPHIL [2]: 0%
- EOSINOPHIL [2]: 0.67%
- ERYTHROCYTE COUNT [2]: 5.76 x10E6/uL
- HEMATOCRIT [2]: 36.7%
- HEMOGLOBIN [2]: 14.3 G/DL
- LEUKOCYTE COUNT [2]: 13.9 x10E3/uL
- LYMPHOCYTE [2]: 88.67%
- MEAN CORPUSCULAR HEMOGLOBIN [2]: 24.83 pg
- MEAN CORPUSCULAR HEMOGLOBIN CONCENTRATION [2]: 38.97 G/DL
- MEAN CORPUSCULAR VOLUME [2]: 63.73 fL
- MONOCYTE [2]: 1.33%
- NEUTROPHIL [2]: 9.33%
- NUCLEATED RED BLOOD CELLS [2]: 0 /100WBC
- PLATELET COUNT [2]: 1127 x10E3/uL
- ALANINE AMINOTRANSFERASE [2]: 61 u/L
- ALBUMIN [2]: 4.33 G/DL
- ALKALINE PHOSPHATASE [2]: 384.33 u/L
- ASPARTATE AMINOTRANSFERASE [2]: 75 u/L
- BLOOD UREA NITROGEN [2]: 15 mg/dL
- CARBON DIOXIDE [2]: 29.33 mmol/L
- CHLORIDE [2]: 100.33 MEQ/L
- CHOLESTEROL [2]: 73.67 mg/dL
- CREATINE PHOSPHOKINASE [2]: 274.33 u/L
- CREATININE [2]: 0.22 mg/dL
- GLUCOSE [2]: 153.67 mg/dL
- LACTATE DEHYDROGENASE [2]: 111 u/L
- LIPASE [2]: 12.67 u/L
- PHOSPHORUS [2]: 10.1 mg/dL
- POTASSIUM [2]: 6.41 MEQ/L
- SODIUM [2]: 142.27 MEQ/L
- TOTAL BILIRUBIN [2]: 0.17 mg/dL
- TOTAL PROTEIN [2]: 5.97 G/DL
- URIC ACID [2]: 1.13 mg/dL
- ABSOLUTE BASOPHIL [3]: 0 CELLS/uL
- ABSOLUTE EOSINOPHIL [3]: 0 CELLS/uL
- ABSOLUTE LYMPHOCYTE [3]: 6679.67 CELLS/uL
- ABSOLUTE MONOCYTE [3]: 205.33 CELLS/uL
- ABSOLUTE SEGMENTED NEUTROPHIL [3]: 481.67 CELLS/uL
- BASOPHIL [3]: 0%
- EOSINOPHIL [3]: 0%
- ERYTHROCYTE COUNT [3]: 6.41 x10E6/uL
- HEMATOCRIT [3]: 40.73%
- HEMOGLOBIN [3]: 15.47 G/DL
- LEUKOCYTE COUNT [3]: 7.37 x10E3/uL
- LYMPHOCYTE [3]: 91%
- MEAN CORPUSCULAR HEMOGLOBIN [3]: 24.1 pg
- MEAN CORPUSCULAR HEMOGLOBIN CONCENTRATION [3]: 38 G/DL
- MEAN CORPUSCULAR VOLUME [3]: 63.4 fL
- MONOCYTE [3]: 2.67%
- NEUTROPHIL [3]: 6.33%
- NUCLEATED RED BLOOD CELLS [3]: 0.33 /100WBC
- PLATELET COUNT [3]: 972 x10E3/uL
- ALANINE AMINOTRANSFERASE [3]: 61.67 u/L
- ALBUMIN [3]: 4.17 G/DL
- ALKALINE PHOSPHATASE [3]: 420.33 u/L
- ASPARTATE AMINOTRANSFERASE [3]: 105.67 u/L
- BLOOD UREA NITROGEN [3]: 12 mg/dL
- CARBON DIOXIDE [3]: 28 mmol/L
- CHLORIDE [3]: 99.33 MEQ/L
- CHOLESTEROL [3]: 77.33 mg/dL
- CREATINE PHOSPHOKINASE [3]: 602.33 u/L
- CREATININE [3]: 0.16 mg/dL
- GLUCOSE [3]: 163 mg/dL
- LACTATE DEHYDROGENASE [3]: 320 u/L
- LIPASE [3]: 13 u/L
- PHOSPHORUS [3]: 11.97 mg/dL
- POTASSIUM [3]: 6.85 MEQ/L
- SODIUM [3]: 141.03 MEQ/L
- TOTAL BILIRUBIN [3]: 0.2 mg/dL
- TOTAL PROTEIN [3]: 5.8 G/DL
- URIC ACID [3]: 1.57 mg/dL
- ABSOLUTE BASOPHIL [4]: 0 CELLS/uL
- ABSOLUTE EOSINOPHIL [4]: 80.67 CELLS/uL
- ABSOLUTE LYMPHOCYTE [4]: 12020.67 CELLS/uL
- ABSOLUTE MONOCYTE [4]: 204.67 CELLS/uL
- ABSOLUTE SEGMENTED NEUTROPHIL [4]: 927.33 CELLS/uL
- BASOPHIL [4]: 0%
- EOSINOPHIL [4]: 0.67%
- ERYTHROCYTE COUNT [4]: 5.62 x10E6/uL
- HEMATOCRIT [4]: 34.93%
- HEMOGLOBIN [4]: 13.6 G/DL
- LEUKOCYTE COUNT [4]: 13.23 x10E3/uL
- LYMPHOCYTE [4]: 91%
- MEAN CORPUSCULAR HEMOGLOBIN [4]: 24.33 pg
- MEAN CORPUSCULAR HEMOGLOBIN CONCENTRATION [4]: 39 G/DL
- MEAN CORPUSCULAR VOLUME [4]: 62.3 fL
- MONOCYTE [4]: 1.33%
- NEUTROPHIL [4]: 7%
- NUCLEATED RED BLOOD CELLS [4]: 0 /100WBC
- PLATELET COUNT [4]: 1431.67 x10E3/uL
- ALANINE AMINOTRANSFERASE [4]: 58 u/L
- ALBUMIN [4]: 4.4 G/DL
- ALKALINE PHOSPHATASE [4]: 341 u/L
- ASPARTATE AMINOTRANSFERASE [4]: 91.33 u/L
- BLOOD UREA NITROGEN [4]: 10.67 mg/dL
- CARBON DIOXIDE [4]: 25 mmol/L
- CHLORIDE [4]: 100.33 MEQ/L
- CHOLESTEROL [4]: 73 mg/dL
- CREATINE PHOSPHOKINASE [4]: 601.67 u/L
- CREATININE [4]: 0.13 mg/dL
- GLUCOSE [4]: 164 mg/dL
- LACTATE DEHYDROGENASE [4]: 169.67 u/L
- LIPASE [4]: 12.33 u/L
- PHOSPHORUS [4]: 11.07 mg/dL
- POTASSIUM [4]: 7.18 MEQ/L
- SODIUM [4]: 142.8 MEQ/L
- TOTAL BILIRUBIN [4]: 0.17 mg/dL
- TOTAL PROTEIN [4]: 6.07 G/DL
- URIC ACID [4]: 1.5 mg/dL
